Results reported in ChEMBL document CHEMBL2417364, “Acetylated dammarane-type bisdesmosides from Combretum inflatum” (J Nat Prod, 2013).

Columns and labels:
Escherichia coli = assay: Inhibition of biofilm formation in Escherichia coli UTI89 after 72 hrs by crystal violet staining; type: functional, organism-based; settings: UTI89, 72 h
Staphylococcus aureus = assay: Antibacterial activity against methicillin-resistant Staphylococcus aureus clinical isolate 108 at 16 ug/ml after 24 hrs by broth microdilution method; type: functional
NCI-H460 = assay: Cytotoxicity against human NCI-H460 cells after 72 hrs; type: functional, cell-based; settings: NCI-H460, 72 h

Structure (SMILES)	IC50 (Escherichia coli)	Activity (Staphylococcus aureus)	IC50 (NCI-H460)
CC(=O)O[C@@H]1[C@H](O[C@@H]2O[C@H](C)[C@H](O)[C@H](O)[C@H]2O)C[C@]2(C)[C@H]3[C@H](O[C@@H]4O[C@H](C)[C@H](O)[C@H](O)[C@H]4O)C[C@@H]4[C@@H]([C@](C)(O)CCCC(C)(C)O)CC[C@@]4(C)[C@]3(C)CC[C@H]2C1(C)C	≥ 30 µg/mL	–	–
CC(=O)O[C@@H]1[C@H](O[C@@H]2O[C@H](C)[C@@H](O)[C@H](O)[C@H]2O)C[C@]2(C)[C@H]3[C@H](O[C@@H]4O[C@H](C)[C@H](O)[C@H](O)[C@H]4O)C[C@@H]4[C@@H]([C@](C)(O)CCCC(C)(C)O)CC[C@@]4(C)[C@]3(C)CC[C@H]2C1(C)C	≥ 30 µg/mL	–	–
CC(=O)O[C@@H]1[C@H](O[C@@H]2O[C@H](C)[C@H](O)[C@H](O)[C@H]2O)C[C@]2(C)[C@H]3[C@H](O[C@@H]4O[C@H](C)[C@H](O)[C@H](O)[C@H]4O)C[C@@H]4[C@@H](/C(C)=C/CCC(C)(C)O)CC[C@@]4(C)[C@]3(C)CC[C@H]2C1(C)C	≥ 30 µg/mL	71%	–
CC(=O)O[C@@H]1[C@H](O[C@@H]2O[C@H](C)[C@@H](O)[C@H](O)[C@H]2O)C[C@]2(C)[C@H]3[C@H](O[C@@H]4O[C@H](C)[C@H](O)[C@H](O)[C@H]4O)C[C@@H]4[C@@H](/C(C)=C/CCC(C)(C)O)CC[C@@]4(C)[C@]3(C)CC[C@H]2C1(C)C	≥ 30 µg/mL	64%	–
CC(=O)O[C@@H]1[C@H](O[C@@H]2O[C@H](C)[C@H](O)[C@H](O)[C@H]2O)C[C@]2(C)[C@H]3[C@H](O[C@@H]4O[C@H](C)[C@H](O)[C@H](O)[C@H]4O)C[C@@H]4[C@@H]([C@](C)(O)CCC=C(C)C)CC[C@@]4(C)[C@]3(C)CC[C@H]2C1(C)C	≥ 30 µg/mL	45%	–
CC(=O)O[C@@H]1[C@H](O[C@@H]2O[C@H](C)[C@@H](O)[C@H](O)[C@H]2O)C[C@]2(C)[C@H]3[C@H](O[C@@H]4O[C@H](C)[C@H](O)[C@H](O)[C@H]4O)C[C@@H]4[C@@H]([C@](C)(O)CCC=C(C)C)CC[C@@]4(C)[C@]3(C)CC[C@H]2C1(C)C	≥ 30 µg/mL	51%	–
CC(=O)O[C@@H]1[C@H](O[C@@H]2O[C@H](C)[C@H](O)[C@H](O)[C@H]2O)C[C@]2(C)[C@H]3[C@H](O[C@@H]4O[C@H](C)[C@H](O)[C@H](O)[C@H]4O)C[C@@H]4[C@@H]([C@@](C)(O)CCC=C(C)C)CC[C@@]4(C)[C@]3(C)CC[C@H]2C1(C)C	≥ 30 µg/mL	49%	3.9 µM
